The experiment relates to P. acnes (MicroBiologics, ATCC #11827). The experiment in a line: Minimal inhibitory concentration (MIC) against P. acnes, serial dilution in thioglycollate broth. The experiment is classed as cell-based, Propionbacterium acnes. The conditions noted are these: for MIC: Cutibacterium acnes. How it is done: The objective of this example was to establish the minimal inhibitory concentration (MIC) of quercetin (Q), rosmarinic acid (RA), triclosan (T) and salicylic acid (SA) towards the bacterium P. acnes. Combinations of quercetin with rosmarinic acid 1:1 (Q+RA) and quercetin with salicylic acid (1:1) (Q+SA) were also tested.
The following methods were used in this example. P. acnes (MicroBiologics, ATCC #11827, batch #419697) was inoculated at 3 different dilutions and grown on blood agar plates for 3 days in anaerobic condition at 37 C. About 10 colonies were than suspended in thioglycollate broth in order to achieve the density equivalent to 0.5 McFarland standard. Test materials were dissolved in the thioglycollate broth at following concentrations:
The antimicrobial effect of the test samples was assayed by making serial dilutions for each material or the 1:1 combination thereof, followed by anaerobic incubation with bacterial agent in thioglycollate brothin a 96 well plate, at the initial density of 5×10^5 CFU/ml (0.001 McFarland standard). MIC was determined visually after 84 hours and confirmed by spectrophotometry at 405 nm with the BioRad 3550-UV microplate reader, using media with respective test materials without bacteria for background subtraction.

[1] abbreviates: ATCC11827, anaerobic incubation in thioglycollate broth, 84 hours, visual, confirmed at 405 nm, read-out: MIC.
[2] abbreviates: anaerobic incubation in thioglycollate broth, 84 hours.

The structures appear in SMILES notation. Where two headings read alike, the source gives them in different places. A value given as a limit tells only on which side of the number the result lay.

The term MIC denotes the smallest concentration in the dilution series that meets the test's criterion for growth inhibition. On to `O=C(O)c1ccccc1O` [SA, 2-Hydroxybenzoic acid, reference compound], for which the minimal inhibitory concentration (MIC) under setting [1] is over 2000 µg/mL. Further, the “MIC (%)” value under setting [2] stood at 2%.

For `Oc1cc(Cl)ccc1Oc1ccc(Cl)cc1Cl` [T, triclosan, reference compound], the MIC (ATCC11827, 84 h) was 400 µg/mL. Under setting [2], the “MIC (%)” value is given as 0.4%.

Take `O=C(/C=C/c1ccc(O)c(O)c1)O[C@H](Cc1ccc(O)c(O)c1)C(=O)O` [RA]: under setting [1], the MIC came to 30 µg/mL. Moreover, the “MIC (%)” value under setting [2] was 0.003%. Moreover, the “activity towards inhibiting P. acnes” value (result in words) is given as “significant activity”.

Turning to `O=c1c(O)c(-c2ccc(O)c(O)c2)oc2cc(O)cc(O)c12` [Q, 2-(3,4-dihydroxyphenyl)-3,5,7-trihydroxy-4H-1-benzopyran-4-one], under setting [1], the MIC was 30 µg/mL. For the same molecule, the “MIC (%)” value under setting [2] was determined as 0.003%. Moreover, the “activity towards inhibiting P. acnes in the presence of salicylic acid” value (in the presence of salicylic acid (1:1), result in words) was “maintained activity”. Under “result in words”, the “activity towards inhibiting P. acnes” value is listed as “significant activity”.

Values taken from US20080070875A1, “Acne treatment compositions and methods of use” (priority 2006, published 2008).
